Some test systems named below: SR leukemia; 786-0 renal; HCT-15 colon; A498 renal; M14 melanoma; MDA-MB-231 breast; SK-OV-3 ovarian; NCI-H460 lung; COLO 205 colon; NCI-H23 lung.
Test in all cases: DTP human tumour cell line panel, 48 h

These results are taken from PubChem BioAssay (NCI).

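Method: 48-hour compound exposure of cells in 96-well plates, five concentrations, linear interpolation of endpoints. GI50: concentration for 50% inhibition of growth. TGI is the concentration that stops growth completely.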

By GI50 is commonly meant the concentration that inhibits growth by half. As a reminder, the TGI is the concentration at which net growth stops. A low value points to greater sensitivity of the cells. For the compound `CCCCC(SC(=S)N1CCCC1)C(=O)Nc1nc(CC(=O)OCC)cs1` (stereo unspecified), the GI50 in the test with SR leukemia is 4.83 µM; in the test on 786-0 renal, 62.2 µM; in the test on HCT-15 colon it was 66.1 µM; in the test on A498 renal, 64.6 µM; in the test on M14 melanoma, 32.9 µM; with MDA-MB-231 breast it was above 100 µM. Also, the GI50 in the test on SK-OV-3 ovarian was 97.4 µM. Moreover, the TGI with SR leukemia, in the test with 786-0 renal, with HCT-15 colon, with A498 renal, in the test on M14 melanoma and in the test on MDA-MB-231 breast was above 100 µM in each case. In the test on SK-OV-3 ovarian, this compound displayed a TGI above 100 µM.
For `COc1ccc(-c2c(C)c(C(=O)O)nc(-c3ccc4c(O)c(OC)c5c(c4n3)=NC(C)(C)N=5)c2N)c(O)c1OC`, the TGI in the test on SR leukemia is 1.94 µM; in the test with NCI-H460 lung, 17 µM; in the test on COLO 205 colon, 77.1 µM; with 786-0 renal it was 31.6 µM; in the test with HCT-15 colon it was above 100 µM; in the test on NCI-H23 lung, 6.95 µM. The TGI in the test with M14 melanoma is 74.6 µM; in the test on MDA-MB-231 breast, above 100 µM; with SK-OV-3 ovarian, 65.6 µM.
As to `O=c1[nH]c(=O)n(C2CC(O)C(CO)O2)cc1Oc1ccccc1` (stereo unspecified), the TGI in the test on SR leukemia, in the test with NCI-H460 lung, in the test with COLO 205 colon, with 786-0 renal, in the test with HCT-15 colon and with NCI-H23 lung was above 100 µM in each case. Besides, the TGI in the test with M14 melanoma, with MDA-MB-231 breast and in the test on SK-OV-3 ovarian was above 100 µM each time.
Regarding `C=C(C)[C@@H]1CCC=C2CC[C@]3(C)[C@H](CC[C@@H]4[C@@]5(C)CCCNC(C)(C)[C@@H]5CC[C@]43C)[C@H]21`, the GI50 is 1.25 µM in the test on SR leukemia; 1.93 µM in the test with NCI-H460 lung; 1.9 µM in the test with COLO 205 colon; 1.68 µM in the test on 786-0 renal; 11.7 µM in the test on A498 renal; 1.73 µM in the test with M14 melanoma. For the same compound, the GI50 in the test with MDA-MB-231 breast was 1.77 µM; in the test on SK-OV-3 ovarian it was 12.1 µM. Moreover, the TGI was 3.65 µM with SR leukemia; 3.73 µM in the test with NCI-H460 lung; 3.65 µM in the test on COLO 205 colon; 3.04 µM in the test on 786-0 renal; 26.9 µM with A498 renal; 3.34 µM in the test with M14 melanoma. In addition, the TGI worked out at 3.31 µM in the test on MDA-MB-231 breast and 27.3 µM in the test with SK-OV-3 ovarian.
With `C(/C=N/NC1=NCCCCN1)=N\NC1=NCCCCN1`, the TGI with SR leukemia, in the test on NCI-H460 lung, in the test with COLO 205 colon, in the test on 786-0 renal, in the test with NCI-H23 lung and in the test on M14 melanoma was above 100 µM in each case. For the same compound, the TGI with MDA-MB-231 breast and with SK-OV-3 ovarian was above 100 µM each time.
On to `CCCn1c2c(c3c(O)cccc31)C(=O)c1ccccc1-2`, for which the GI50 is 0.0354 µM with SR leukemia; 22.1 µM in the test with NCI-H460 lung; above 100 µM with COLO 205 colon; 14.6 µM in the test with 786-0 renal; 34.1 µM in the test on HCT-15 colon; 11.5 µM in the test on NCI-H23 lung. Besides, the values for the GI50 in the test on M14 melanoma, in the test on MDA-MB-231 breast and with SK-OV-3 ovarian were 60.6 µM, 22.1 µM and 23.7 µM, respectively. The TGI in the test on SR leukemia was 23.8 µM; in the test with NCI-H460 lung, above 100 µM; in the test on COLO 205 colon, above 100 µM; with 786-0 renal, 52.2 µM; with HCT-15 colon, above 100 µM; in the test with NCI-H23 lung it was above 100 µM. In addition, the TGI was above 100 µM in the test on M14 melanoma, 73.8 µM in the test with MDA-MB-231 breast and above 100 µM in the test with SK-OV-3 ovarian.
With `Nc1ccn(C2CC(F)C(CO)O2)c(=O)n1` (stereo unspecified), the GI50 with SR leukemia, with NCI-H460 lung, in the test on COLO 205 colon, with 786-0 renal, in the test with HCT-15 colon and with NCI-H23 lung was above 100 µM each time. Moreover, the GI50 in the test with M14 melanoma, in the test on MDA-MB-231 breast and in the test on SK-OV-3 ovarian was above 100 µM each time. For the same compound, the TGI with SR leukemia, in the test on NCI-H460 lung, in the test with COLO 205 colon, with 786-0 renal, in the test with HCT-15 colon and in the test on NCI-H23 lung was above 100 µM throughout. Besides, the TGI with M14 melanoma, in the test with MDA-MB-231 breast and with SK-OV-3 ovarian was above 100 µM in each case.
`O=C(/C=C(\O)C(=O)O)/C=C(\O)c1ccccc1`: the GI50 is above 1 µM with SR leukemia; above 1 µM in the test with NCI-H460 lung; above 1 µM with COLO 205 colon; above 1 µM with 786-0 renal; above 1 µM with HCT-15 colon; above 100 µM in the test on NCI-H23 lung. The GI50 in the test on M14 melanoma and in the test with SK-OV-3 ovarian was above 1 µM each time. Also, the TGI in the test with SR leukemia was above 100 µM; in the test with NCI-H460 lung, above 100 µM; in the test with COLO 205 colon it was above 25.9 µM; in the test with 786-0 renal it was above 100 µM; in the test on HCT-15 colon it was above 100 µM; in the test on NCI-H23 lung it was above 100 µM. Further, the TGI in the test on A498 renal, in the test on M14 melanoma and with SK-OV-3 ovarian was above 100 µM in each case.
Turning to `C=CC(=O)N1C/C(=C\c2ccc(Cl)c(Cl)c2)C(=O)/C(=C/c2ccc(Cl)c(Cl)c2)C1`, the TGI in the test on SR leukemia is 0.0648 µM; in the test on NCI-H460 lung it was 0.298 µM; with COLO 205 colon, 0.243 µM; in the test with 786-0 renal, 0.194 µM; with HCT-15 colon, 0.201 µM; in the test on NCI-H23 lung, 0.438 µM. Besides, the TGI in the test with A498 renal stood at 1.89 µM; in the test on M14 melanoma it was 0.702 µM; with SK-OV-3 ovarian, 1.61 µM.
`C/C(=C\c1ccn(-c2ccccc2N)n1)[C@@H]1C[C@@H]2O[C@]2(C)CCC[C@H](C)[C@H](O)[C@@H](C)C(=O)C(C)(C)[C@@H](O)CC(=O)O1`: the GI50 in the test with SR leukemia was 0.0267 µM; with NCI-H460 lung, 0.0201 µM; with COLO 205 colon, 0.0212 µM; in the test on 786-0 renal, 0.0938 µM; with HCT-15 colon it was 0.0393 µM; with NCI-H23 lung, 0.0663 µM. For the same compound, the GI50 in the test with A498 renal is 0.0372 µM; in the test on MDA-MB-231 breast it was 0.247 µM; in the test on SK-OV-3 ovarian it was 0.081 µM. Further, the TGI in the test on SR leukemia was above 50 µM; with NCI-H460 lung it was above 50 µM; in the test with COLO 205 colon it was 0.641 µM; with 786-0 renal, above 42.6 µM; in the test with HCT-15 colon, above 50 µM; in the test with NCI-H23 lung, above 50 µM. Besides, the TGI in the test on A498 renal is 0.669 µM; with MDA-MB-231 breast, above 50 µM; in the test with SK-OV-3 ovarian, above 50 µM.
